Read-outs that look alike come from different tables or passages of the source.
Legend:
[1] = target: T1, human CB2 (hCB2) (Homo sapiens, UniProt P34972); test: 35S GTPγS binding assay, hCB2 agonist; assay type: biochemical
T1 construct: (cDNA clone) CNR0200000
Method: (§1) cDNA expression clones for human CB1 (hCB1, Genbank Accession No. AY225225) and human CB2 (hCB2, Genbank Accession No. AY242132) expressed in vector pcDNA3.1+ were purchased from UMR cDNA Resource Center, Rolla, Mo. (Clone ID CNR01L000 for hCB1; CNR0200000 for hCB2).
Membranes were isolated from transfected cells as follows. Monolayers of cultured cells were washed twice with phosphate-buffered saline (PBS). […] Homogenates were centrifuged 10 minutes at 1000×g at 4° C. The supernatant was collected and was centrifuged for 1 hour at 40,000×g. The supernatant was then decanted and the resulting pellet was re-suspended in 20 mM HEPES, pH 7.4, 5 mM MgCl2, 1 mM EDTA, 10% sucrose with complete cocktail protease inhibitors. Protein concentration of membrane suspensions were measured by Bradford Protein Assay using bovine serum albumin as the standard (BioRad catalog #500-0006). Protein concentrations of membrane suspensions were adjusted with the final buffer in the range of 5 to 10 mg/mL and were stored at −80° C. until further use.
(§2) Functional assays which monitor G-protein coupled receptor or downstream cellular responses can be used to characterize potential CB1 receptor and/or CB2 receptor agonist or antagonist activities. Direct activation (or inhibition of activation) can be monitored using a GTPγS assay (membrane-based assay) or cAMP assay (whole cell-based assay).
(§3) ^35S GTPγS binding assays were performed by incubating recombinant cell membranes prepared above (5 μg) in the presence of scintillation proximity assay beads (SPA beads, Catalog #RPNQ0252 GE Healthcare, Buckinghamshire, England) in GTPγS binding buffer [50 mM HEPES (pH 7.4), 100 mM NaCl, 5 mM MgCl2, 0.001% saponin (Sigma catalog #S4521)] supplemented with 20 uM GDP (Sigma catalog #G7127) in the presence or absence of test compound. The reaction was carried out in 96-well microplates with 0.1 nM [^35S]GTPγS (specific activity=1250 Ci/mmol; Perkin Elmer catalog #NEG030X250UC) in a final volume of 100 uL. After a 90 min room temperature incubation, the reaction was analyzed using a scintillation counter (Perkin Elmer Microbeta instrument). Binding data were analyzed using GraphPad Prism.

[2] = target: T2, human CB1 (hCB1) (Homo sapiens, UniProt P21554); test: 35S GTPγS binding assay, hCB1 agonist; assay type: biochemical; conditions: GTPγS agonist, HEK-293 membranes; read-out: hCB1 EC50 (GTPyS ag)
T2 construct: (cDNA clone) CNR01L000
T2 sequence (P21554 whole entry): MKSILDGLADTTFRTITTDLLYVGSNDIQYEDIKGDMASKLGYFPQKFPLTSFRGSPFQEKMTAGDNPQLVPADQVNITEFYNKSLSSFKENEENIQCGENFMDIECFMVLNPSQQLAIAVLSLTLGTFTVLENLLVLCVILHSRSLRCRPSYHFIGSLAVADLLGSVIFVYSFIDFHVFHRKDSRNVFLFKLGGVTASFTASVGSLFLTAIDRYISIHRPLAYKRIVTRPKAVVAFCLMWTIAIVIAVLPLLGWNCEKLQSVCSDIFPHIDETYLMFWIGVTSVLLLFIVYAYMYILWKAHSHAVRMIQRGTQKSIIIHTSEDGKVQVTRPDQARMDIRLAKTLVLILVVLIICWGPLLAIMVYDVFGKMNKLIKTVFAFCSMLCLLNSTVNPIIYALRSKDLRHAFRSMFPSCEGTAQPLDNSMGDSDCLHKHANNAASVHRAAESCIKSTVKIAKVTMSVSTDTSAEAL
From the text: as §1
Stable, HEK-293-derived cell lines that recombinantly express hCBI or hCB2 were established. In brief, the clone hCB1 (CNR IL) or hCB2 (CNR2) was transfected into human embryonic kidney cells (HEK-293) using Lipofectamine 2000 (Gibco, Cat#11668-019) according to the manufacturer's protocol. Transfected clones were isolated by single colony purification and clones were screened for receptor expression using a whole cell, ^3H—CP 55,940 radioligand binding assay. HEK-293 stable cells were maintained in Dulbecco's modified Eagles medium (DMEM) containing 10% fetal bovine serum, 2 mM L-glutamine and 0.5 mg/mL G-418.
Membranes were isolated from transfected cells as follows. Monolayers of cultured cells were washed twice with phosphate-buffered saline (PBS). Cells were scraped into 20 mM HEPES, pH 7.4, 10 mM EDTA containing complete cocktail protease inhibitors (Roche, Catalog #11 697 498 001) and were homogenized by an electric-powered mechanical probe homogenizer (Omni GLH; probe G7-195S) for 40 seconds at 7000 rpm. Homogenates were centrifuged 10 minutes at 1000×g at 4° C. The supernatant was collected and was centrifuged for 1 hour at 40,000×g. The supernatant was then decanted and the resulting pellet was re-suspended in 20 mM HEPES, pH 7.4, 5 mM MgCl2, 1 mM EDTA, 10% sucrose with complete cocktail protease inhibitors. Protein concentration of membrane suspensions were measured by Bradford Protein Assay using bovine serum albumin as the standard (BioRad catalog #500-0006). Protein concentrations of membrane suspensions were adjusted with the final buffer in the range of 5 to 10 mg/mL and were stored at −80° C. until further use.
as §2, §3

[3] = target: T3, human CB2 receptors (Homo sapiens, UniProt P34972); test: cAMP assay in HEK-293 cells, hCB2 agonist; assay type: cell-based
T3 construct: (cDNA clone) CNR0200000
T3 sequence (P34972 whole entry): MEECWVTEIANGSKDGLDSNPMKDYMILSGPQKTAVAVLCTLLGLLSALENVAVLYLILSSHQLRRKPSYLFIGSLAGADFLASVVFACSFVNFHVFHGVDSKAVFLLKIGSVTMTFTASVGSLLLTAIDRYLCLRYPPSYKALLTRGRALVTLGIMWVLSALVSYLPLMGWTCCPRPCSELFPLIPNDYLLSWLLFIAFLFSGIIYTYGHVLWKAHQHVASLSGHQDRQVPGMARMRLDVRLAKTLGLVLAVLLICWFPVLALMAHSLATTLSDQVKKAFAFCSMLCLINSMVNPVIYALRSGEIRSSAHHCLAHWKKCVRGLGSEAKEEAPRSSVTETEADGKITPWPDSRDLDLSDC
Outline: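 HEK-293 cells stably expressing human CB2, suspended at 1,500,000 cells/mL in HBSS with 10 mM HEPES and 0.1% fatty-acid-free BSA, exposed to test compound plus forskolin (90 uM in the 3× compound solution) for 30 min at 37° C.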

[4] = target: T4, human CB1 receptors (Homo sapiens, UniProt P21554); test: cAMP assay in HEK-293 cells, hCB1 agonist; assay type: cell-based; conditions: inhibition of forskolin-stimulated cAMP, HEK-293 cells
T4 construct: (cDNA clone) CNR01L000
T4 sequence (P21554 whole entry): as the sequence (P21554 whole entry) above
Outline: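 Stable hCB1 HEK-293 cells suspended in HBSS with 10 mM HEPES and 0.1% fatty acid-free BSA, incubated 30 min at 37° C. with compound plus forskolin (90 uM in the 3× compound solution). Lysed cAMP measured by enzyme-fragment kit; EC50 = 50% inhibition of forskolin-stimulated cAMP (forskolin maximum = 100%), sigmoidal fit.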

[5] = GTPγS agonist, HEK-293 membranes, read-out: hCB2 EC50 (GTPyS ag)
[6] = inhibition of forskolin-stimulated cAMP, HEK-293 cells, read-out: hCB2 EC50 (cAMP ag)
[7] = inhibition of forskolin-stimulated cAMP, HEK-293 cells

T1 sequence (P34972 whole entry): as the sequence (P34972 whole entry) above

SMILES	EC50 [1] [µM]	EC50 [2] [µM]	EC50 [3] [µM]	hCB1 EC50 (cAMP ag, nM) [4]	EC50 [1, 5] [µM]	EC50 [3, 6] [µM]	hCB2 EC50 (cAMP ag, nM) [3, 7]
COc1ccc(C(=O)c2cc3cc(C)n(CC4CCOC4)c3s2)cn1 (centres unmarked) [Compound 159, (6-methoxypyridin-3-yl)(5-methyl-6-((tetrahydrofuran-3-yl)methyl)-6H-thieno[2,3-b]pyrrol-2-yl)methanone]	> 10	> 10	1 to 10	NS (NS means “Not Significant,” which means less than 30% agonist activity when compared to the positive control.)			
COc1ccc(C(=O)c2cc3cc(C)n(CCN4CCOC(C)(C)C4)c3s2)cn1 [Compound 162, (6-(2-(2,2-dimethylmorpholino)ethyl)-5-methyl-6H-thieno[2,3-b]pyrrol-2-yl)(6-methoxypyridin-3-yl)methanone]		> 10		NS (NS means “Not Significant,” which means less than 30% agonist activity when compared to the positive control.)	> 10	0.1 to 1	
COc1ccc(C(=O)c2cc3cc(C)n(CCNC4CCOCC4)c3s2)cn1 [Compound 163, (6-methoxypyridin-3-yl)(5-methyl-6-(2-((tetrahydro-2H-pyran-4-yl)amino)ethyl)-6H-thieno[2,3-b]pyrrol-2-yl)methanone]	1 to 10	> 10	0.1 to 1	NS (NS means “Not Significant,” which means less than 30% agonist activity when compared to the positive control.)			
COc1ccc(C(=O)c2cc3cc(C)n(CC(=O)O)c3s2)cn1 [Compound 166, 2-(2-(6-methoxynicotinoyl)-5-methyl-6H-thieno[2,3-b]pyrrol-6-yl)acetic acid]		> 10		NS (NS means “Not Significant,” which means less than 30% agonist activity when compared to the positive control.)	> 10		NS (NS means “Not Significant,” which means less than 30% agonist activity when compared to the positive control.)
COC(=O)Cn1c(C)cc2cc(C(=O)c3ccc(OC)nc3)sc21 [Compound 168, Methyl 2-(2-(6-methoxynicotinoyl)-5-methyl-6H-thieno[2,3-b]pyrrol-6-yl)acetate]		> 10		NS (NS means “Not Significant,” which means less than 30% agonist activity when compared to the positive control.)	> 10		
COc1ccc(C(=O)c2cc3cc(C)n(C[C@@H]4COCCN4C)c3s2)cn1 [Compound 171, (R)-(6-methoxypyridin-3-yl)(5-methyl-6-((4-methylmorpholin-3-yl)methyl)-6H-thieno[2,3-b]pyrrol-2-yl)methanone]	> 10	> 10		NS (NS means “Not Significant,” which means less than 30% agonist activity when compared to the positive control.)			
COc1ccc(C(=O)c2cc3cc(C)n(CC4CCNCC4)c3s2)cn1 [Compound 172, (6-methoxypyridin-3-yl)(5-methyl-6-(piperidin-4-ylmethyl)-6H-thieno[2,3-b]pyrrol-2-yl)methanone]		> 10		NS (NS means “Not Significant,” which means less than 30% agonist activity when compared to the positive control.)	> 10		NS (NS means “Not Significant,” which means less than 30% agonist activity when compared to the positive control.)
COc1ccc(C(=O)c2cc3cc(C)n(C)c3s2)cn1 [Compound 174, (5,6-dimethyl-6H-thieno[2,3-b]pyrrol-2-yl)(6-methoxypyridin-3-yl)methanone]		> 10		NS (NS means “Not Significant,” which means less than 30% agonist activity when compared to the positive control.)	> 10		
COc1ccc(C(=O)c2cc3cc(C)n(CC(=O)O)c3s2)c(F)c1 [Compound 176, 2-(2-(2-fluoro-4-methoxybenzoyl)-5-methyl-6H-thieno[2,3-b]pyrrol-6-yl)acetic acid]		> 10		NS (NS means “Not Significant,” which means less than 30% agonist activity when compared to the positive control.)	> 10	< 0.1	
COc1ccc(C(=O)c2cc3cc(C)n(CC4COCCO4)c3s2)cn1 (centres unmarked) [Compound 177, (6((1,4-dioxan-2-yl)methyl)-5-methyl-6H-thieno[2,3-b]pyrrol-2-yl)(6-methoxypyridin-3-yl)methanone]	1 to 10	> 10	1 to 10	NS (NS means “Not Significant,” which means less than 30% agonist activity when compared to the positive control.)			
COc1ccc(C(=O)c2cc3cc(C)n(CCN4CCCC4COCc4ccccc4)c3s2)cn1 (centres unmarked) [Compound 178, (6-(2-(2-((benzyloxy)methyl)pyrrolidin-1-yl)ethyl)-5-methyl-6H-thieno[2,3-b]pyrrol-2-yl)(6-methoxypyridin-3-yl)methanone]	> 10	> 10		NS (NS means “Not Significant,” which means less than 30% agonist activity when compared to the positive control.)			NS (NS means “Not Significant,” which means less than 30% agonist activity when compared to the positive control.)
COc1ccc(C(=O)c2cc3cc(C)n(CC4CCN(C(=O)OC(C)(C)C)CC4)c3s2)cn1 [Compound 179, tert-butyl 4((2-(6-methoxynicotinoyl)-5-methyl-6H-thieno[2,3-b]pyrrol-6-yl)methyl)piperidine-1-carboxylate]		> 10		NS (NS means “Not Significant,” which means less than 30% agonist activity when compared to the positive control.)	> 10		
COc1ccc(C(=O)c2cc3cc(C)n(CCN4CCC(C(F)(F)F)CC4)c3s2)cn1 [Compound 181, (6-methoxypyridin-3-yl)(5-methyl-6-(2-(4-(trifluoromethyl)piperidin-1-yl)ethyl)-6H-thieno[2,3-b]pyrrol-2-yl)methanone]	0.1 to 1	1 to 10					NS (NS means “Not Significant,” which means less than 30% agonist activity when compared to the positive control.)

Reference: patent publication US20130029970A1 (priority 2009, published 2013)
